The nature of data set [1]: Expected rise in serum 25-hydroxyvitamin D3 in a human after a single dose. The following applies: single dose of 50 μg to a human (about 60 kg). The format is in vivo.
Data set [2] in a line: Example 1: single-dose pharmacokinetics of serum 25-hydroxyvitamin D3 in miniature swine. Type of data set: in vivo. The following applies: Yucatan miniature swine. On the procedure:
Nine oral vitamin D formulations were prepared according to Table 3 below by homogeneously mixing the identified components in the amounts shown and filling the mixtures into hard gelatin capsules. Formulation 9 is an immediate-release formulation according to the prior art, wherein MIGLYOL 812N is the trade name for caprylic/capric triglycerides, available from CONDEA Chemie GmbH of Cranford, N.J., USA. […] Each group included five animals.
Blood was collected pre-dose, and at 0.5, 1, 2, 4, 6, 8, 12, 24, 48, 96, 168, 240, 336, 432, 504, 576, and 672 hours post dosing. Serum 25-hydroxyvitamin D3 levels were assayed by Liquid Chromatography/Mass Spectrometry/Mass Spectrometry (LC MS/MS).

[3] abbreviates: 250 μg via intravenous injection, AVG.

The structures appear in SMILES notation.

Take `C=C1CC[C@H](O)C/C1=C/C=C1\CCC[C@]2(C)[C@@H]([C@H](C)CCCC(C)(C)O)CC[C@@H]12` [25-hydroxyvitamin D3]: in data set [1], the “expected increase in serum levels of 25-hydroxyvitamin D3” value is listed as “about 1.4 ng/ml”.
For the compound `C=C1CC[C@H](O)C/C1=C/C=C1\CCC[C@]2(C)[C@@H]([C@H](C)CCCC(C)(C)O)CC[C@@H]12` [Group 10, 25-hydroxyvitamin D3], the “AUC (0-672 hr)” value in data set [2] (250 μg 25-hydroxyvitamin D3 via intravenous injection, AVG) was determined as 15038.0 ng·h/mL. In addition, the BA in data set [2] (250 μg via intravenous injection) worked out at 100.0%. Further, in data set [2] (setting [3]), the “AUC (0-INF)” value was determined as 16616.1 ng·h/mL; the highest concentration (Cmax) – broadly, the maximum level reached in the sampled fluid or tissue – came to 154.9 ng/mL; the T1/2 came out at 132.4 h; the Tmax (in general, the time at which the peak concentration occurs) was found to be 1.5 h.

The values are drawn from US9498486B1, “Method for controlled release oral dosage of a vitamin D compound” (OPKO RENAL, LLC, priority 2007, dated 2016).
